Activity calls are given as the source filed them. No cut-off for these calls is given here.
target: T1, Acetylcholinesterase (Homo sapiens, UniProt P22303); assay: Inhibition of AChE (unknown origin) using acetylthiocholine iodide as substrate preincubated for 10 mins followed by substrate addition measured after 10 mins by Ellman's method
T1 sequence (P22303 whole entry): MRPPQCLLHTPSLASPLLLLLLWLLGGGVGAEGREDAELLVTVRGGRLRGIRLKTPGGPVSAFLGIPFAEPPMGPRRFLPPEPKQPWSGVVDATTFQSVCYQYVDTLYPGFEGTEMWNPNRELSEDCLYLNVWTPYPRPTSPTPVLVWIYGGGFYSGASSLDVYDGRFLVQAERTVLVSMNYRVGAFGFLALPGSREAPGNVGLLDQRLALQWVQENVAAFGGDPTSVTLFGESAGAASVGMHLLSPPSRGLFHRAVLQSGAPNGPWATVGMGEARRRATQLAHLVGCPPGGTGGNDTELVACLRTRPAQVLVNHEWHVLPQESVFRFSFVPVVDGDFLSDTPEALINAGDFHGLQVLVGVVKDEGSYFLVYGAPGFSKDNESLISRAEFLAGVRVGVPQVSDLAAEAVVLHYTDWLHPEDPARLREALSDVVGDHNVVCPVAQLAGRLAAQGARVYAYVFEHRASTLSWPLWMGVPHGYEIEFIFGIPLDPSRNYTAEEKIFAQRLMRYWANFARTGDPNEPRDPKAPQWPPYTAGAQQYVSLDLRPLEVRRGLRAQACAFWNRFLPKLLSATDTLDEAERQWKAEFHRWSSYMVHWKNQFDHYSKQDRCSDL

| SMILES | IC50 [nM] |
| --- | --- |
| CC(=O)OC(C)(C)/C=C/C(=O)[C@](C)(O)[C@H]1[C@H](O)C[C@@]2(C)[C@@H]3CC=C(C(C)(C)C(=O)O)C4=CC(=O)O[C@](O)(C[C@]12C)[C@@]43C | 2600 |
| CC(=O)OC(C)(C)/C=C/C(=O)[C@](C)(O)[C@H]1[C@H](O)C[C@@]2(C)[C@@H]3CC=C(C(C)(C)C(=O)O)/C(=C\C(=O)O)[C@]3(C)C(=O)C[C@]12C | 3100 |

target: T1, Acetylcholinesterase; assay: Inhibition of AChE (unknown origin) at 10 uM using acetylthiocholine iodide as substrate preincubated for 10 mins followed by substrate addition measured after 10 mins by Ellman's method

| SMILES | inhibition |
| --- | --- |
| CC(=O)OC(C)(C)/C=C/C(=O)[C@](C)(O)[C@H]1[C@H](O)C[C@@]2(C)[C@@H]3[C@@H](O)C=C4[C@@H](C=C(O[C@@H]5O[C@H](CO)[C@@H](O)[C@H](O)[C@H]5O)C(=O)C4(C)C)[C@]3(C)C(=O)C[C@]12C | inactive |
| COC(=O)C(C)(C)C1=CC[C@@H]2[C@@](C)(C(=O)C[C@]3(C)[C@@H]([C@@](C)(O)C(=O)/C=C/C(C)(C)OC(C)=O)[C@H](O)C[C@@]23C)/C1=C/C(=O)O | inactive |
| CC(=O)OC(C)(C)/C=C/C(=O)[C@](C)(O)[C@H]1[C@H](O)C[C@@]2(C)[C@@H]3CC=C4[C@@H](C[C@H](O[C@@H]5O[C@H](CO)[C@@H](O)[C@H](O)[C@H]5O)C(=O)C4(C)C)[C@]3(C)C(=O)C[C@]12C | inactive |
| CC(=O)OC(C)(C)/C=C/C(=O)[C@](C)(O)[C@H]1[C@H](O)C[C@@]2(C)[C@@H]3CC=C4[C@@H](C=C(O)C(=O)C4(C)C)[C@]3(C)C(=O)C[C@]12C | inactive |
| CC(=O)OC(C)(C)CCC(=O)[C@](C)(O)[C@H]1[C@H](O)C[C@@]2(C)[C@@H]3CC=C4[C@@H](C[C@H](O[C@@H]5O[C@H](CO)[C@@H](O)[C@H](O)[C@H]5O)C(=O)C4(C)C)[C@]3(C)C(=O)C[C@]12C | inactive |
| CC(=O)OC(C)(C)/C=C/C(=O)[C@](C)(O)[C@H]1[C@H](O)C[C@@]2(C)[C@@H]3CC=C4[C@@H](C[C@H](O)C(=O)C4(C)C)[C@]3(C)C(=O)C[C@]12C | inactive |
| CC(=O)OC(C)(C)CCC(=O)[C@](C)(O)[C@H]1[C@H](O)C[C@@]2(C)[C@@H]3CC=C4[C@@H](C[C@H](O)C(=O)C4(C)C)[C@]3(C)C(=O)C[C@]12C | inactive |
| CC(=O)OC[C@H]1O[C@@H](OC2=C[C@@H]3C(=CC[C@@H]4[C@@]3(C)C(=O)C[C@]3(C)[C@@H]([C@@](C)(O)C(=O)/C=C/C(C)(C)OC(C)=O)[C@H](O)C[C@@]43C)C(C)(C)C2=O)[C@H](O)[C@@H](O)[C@@H]1O | inactive |
| CC(=O)OC(C)(C)/C=C/C(=O)[C@](C)(O)[C@H]1[C@H](O)C[C@@]2(C)[C@@H]3CC=C(C(C)(C)C(=O)O)/C(=C\C#N)[C@]3(C)C(=O)C[C@]12C | inactive |

Reference: ChEMBL document CHEMBL4196184, “Colocynthenins A-D, Ring-A seco-Cucurbitane Triterpenoids from the Fruits of Citrullus colocynthis” (J Nat Prod, 2018)
